Measurements from article PMC10534582, “A Pharmacokinetic Study of Sixteen Major Bioactive Components of Jinshui-Huanxian Granules in Pulmonary Fibrosis Model and Control Rats Using Orbitrap Fusion Mass Spectrometry” (Molecules, 2023).
Where two headings read alike, the source gives them in different places.

Test: Pharmacokinetics of JHG components in control rats after intragastric administration of JHGs (plasma, Orbitrap Fusion MS)
Type: in vivo, Sprague Dawley (SD) rats
Conditions: for AUC(0-inf) / AUC(0-t) / half-life / MRT last / MRT inf / Tmax / Cmax: male, rat, plasma, po; for MRT last: read-out: MRT(0-t); for MRT inf: read-out: MRT(0-∞); for Cmax: intragastric JHGs; for pharmacokinetic process (Cmax and AUCs versus dosage): low, medium, high doses of JHGs
Procedure: Healthy male Sprague Dawley (SD) rats of SPF grade (240 ± 20 g) were purchased from Sipeifu (Beijing, China) Biotechnology Co., Ltd. (Beijing, China), Certificate of Conformity No.: SCYK (Beijing, China) 2019-0015, Animal Quality Certificate No.: 110324220102348616. They were housed in the Animal Center of Henan University of Traditional Chinese Medicine, which passed the ethical audit, ethics number: DWLL202208003, breeding Co. 24 °C, relative humidity 50 ± 2%. The animals fasted for 12 h before the experiment and drank water freely. All feeding and experimental studies on experimental animals were in accordance with the regulations on the Management of Experimental Animals in Henan Province.
Twenty-four healthy male SD rats or PF model rats, weighing 240 ± 20 g, fasted for 12 h before the experiment and drank water freely. Both kinds of rats were randomly divided into four groups. Blank group: equal dose of water by intragastric, low dose; administration group: rats were given the equivalent human dose of JHGs by intragastric, i.e., 10.8 g of raw drug/kg/d (5.70 g/kg/d); medium-dose administration group: 2 times the human equivalent dose of JHGs by intragastric, i.e., 21.6 g of raw drug/kg/d (11.41 g/kg/d); high-dose administration group: 4 times the human equivalent dose of JHG, i.e., 43.2 g of raw drug/kg/d (22.81 g/kg/d). Blood was collected from the tail vein before and 0.083, 0.25, 0.5, 0.75, 1, 1.5, 2, 3, 4, 6, 8, 12, 18, and 24 h after dosing, respectively. A total of 0.5 mL was placed in a heparin sodium centrifuge tube. Whole blood was left for 30 min and then centrifuged in a low-temperature freezing centrifuge (4 °C, 3000 r/min) for 15 min. The upper layer of plasma was collected and stored in a refrigerator at −80 °C.
We added 50 μL of internal standard solution and 800 μL of methanol, shook for 15 min, then centrifuged at 12,000 r/min for 10 min, took the supernatant, dried in a centrifuge concentrator, added 50 μL of the initial mobile phase to the residue, dissolved, centrifuged, then separated the upper layer of the solution used as the test solution. A total of 5 μL test solution was taken into the sample for analysis. For each compound with a certain dosage, the same procedure is repeated six times in parallel. The concentration in plasma was calculated by the internal standard method.
Accucore C18 (100 mm × 2.1 mm, 2.6 μm) column at 25 °C, the mobile phase was methanol (A)-0.1% formic acid aqueous solution (B). The gradient elution program was 0–4 min (65% B-40% B), 4–5 min (40% B-40% B), 5–6 min (40% B-28% B), and 6–7 min (28% B-19% B), 7–7.5 min (19% B-10% B), 7.5–11 min (10% B-0% B), the flow rate was 0.2 mL/min, and the injection volume was 5 μL.
The ion source was an electrospray ionization source (ESI). Nitrogen acted as a carrier gas. The sheath gas pressure was 35 Arb. The auxiliary gas pressure was 7 Arb. The spray voltage was 3.50 kv(+), 2.50 kv(-). The ion transport tube temperature was regulated at 300 °C. Gasification temperature was 275 °C. The resolution was 50,000. The scanning mode was set as SIM mode. The optimized parameters obtained are in Table 5.
Under the established Orbitrap Fusion MS method, the pharmacokinetics of JHG in rats were studied to investigate the dynamic changes of the active components in rats. The pharmacokinetic parameters of each component in each dosing group were calculated by […] model analysis using Kinetica 5.1 (Innaphase, Waltham, MA, USA) pharmacokinetic analysis software. The pharmacotemporal curves were plotted by the plotting software. SPSS 19.0 (IBM, Armonk, NY, USA) was used to analyze all the parameters. Independent sample tests were performed after natural logarithmic transformation for AUC0–t, Cmax. The nonparametric Mann–Whitney test was applied for Tmax, t½, and MRT0–t. p < 0.05 was considered statistically significant.

[1] = Sprague Dawley, 5.7 g/kg/day, JHGs low dose 5.70 g/kg/d
[2] = Sprague Dawley, 5.7 g/kg/day, JHGs low dose 5.70 g/kg/d, read-out: Tmax
[3] = Sprague Dawley, 5.7 g/kg/day, low dose 5.70 g/kg/d, n=6 (1st of 3 stacked values)
[4] = Sprague Dawley, 11.41 g/kg/day, JHGs medium dose 11.41 g/kg/d
[5] = Sprague Dawley, 11.41 g/kg/day, JHGs medium dose 11.41 g/kg/d, read-out: Tmax
[6] = Sprague Dawley, 11.41 g/kg/day, medium dose 11.41 g/kg/d, n=6 (2nd of 3 stacked values)
[7] = Sprague Dawley, 22.81 g/kg/day, JHGs high dose 22.81 g/kg/d
[8] = Sprague Dawley, 22.81 g/kg/day, JHGs high dose 22.81 g/kg/d, read-out: Tmax
[9] = Sprague Dawley, 22.81 g/kg/day, high dose 22.81 g/kg/d, n=6 (3rd of 3 stacked values)
[10] = Sprague-Dawley, after administration of JHGs, read-out: Tmax of all dosages

Row | Clearances (JHGs high dose 22.81 g/kg/d) | Vss (JHGs high dose 22.81 g/kg/d) | Clearances (JHGs low dose 5.70 g/kg/d) | Vss (JHGs low dose 5.70 g/kg/d) | Clearances (JHGs medium dose 11.41 g/kg/d) | Vss (JHGs medium dose 11.41 g/kg/d) | AUC(0-inf) [1] | AUC(0-t) [1] | half-life [1] | MRT last [1] | MRT inf [1] | Tmax [2] | Cmax [3] | AUC(0-inf) [4] | AUC(0-t) [4] | half-life [4] | MRT last [4] | MRT inf [4] | Tmax [5] | Cmax [6] | SMILES | other results
1 | 2357.3 ± 393.5 mL/min/kg | 1831.33 ± 158.35 L | 1602 ± 417.2 mL/min/kg | 1528.44 ± 295.01 L | 2679.2 ± 604.3 mL/min/kg | 2003.58 ± 215.42 L | 55.6 ± 13 ng·h/mL | 42.4 ± 8.94 ng·h/mL | 13.2 ± 1.77 h | 7.84 ± 0.03 h | 16.1 ± 1.86 h | 0.75 h | 6.6 ± 1.48 ng/mL | 59.2 ± 14.8 ng·h/mL | 48.6 ± 10.1 ng·h/mL | 11.1 ± 1.41 h | 6.91 ± 0.23 h | 12.7 ± 1.67 h | 0.75 h | 11.7 ± 2.03 ng/mL | COc1ccc(C(C)=O)c(O)c1 [Paeonol] | AUC(0-inf) [7]: 131 ± 20.9 ng·h/mL; AUC(0-t) [7]: 106 ± 6.95 ng·h/mL; half-life [7]: 9.02 ± 3.68 h; MRT last [7]: 7.77 ± 0.37 h; MRT inf [7]: 13.3 ± 3.52 h; Tmax [8]: 2 h; Cmax [9]: 15.7 ± 1.66 ng/mL; Tmax [10]: ≤ 2 h
2 | 805.7 ± 251.3 mL/min/kg | 882.05 ± 234.11 L | 271.5 ± 60.7 mL/min/kg | 287.56 ± 59.62 L | 466.5 ± 143 mL/min/kg | 642.56 ± 174.23 L | 21.1 ± 6.95 ng·h/mL | 15.6 ± 4.99 ng·h/mL | 13.5 ± 1.64 h | 8.63 ± 0.2 h | 17.8 ± 2.23 h | 0.75 h | 2.51 ± 0.77 ng/mL | 22.3 ± 6.8 ng·h/mL | 14.4 ± 4.14 ng·h/mL | 18.7 ± 2.51 h | 8.19 ± 0.19 h | 23.3 ± 3.85 h | 0.75 h | 3.02 ± 0.58 ng/mL | COc1ccc(-c2cc(=O)c3c(OC)c(OC)c(OC)c(OC)c3o2)cc1OC [Nobiletin] | t1/2 (JHGs high dose 22.81 g/kg/d): 16.19 ± 7.02 h; AUC(0-inf) [7]: 25.9 ± 9.57 ng·h/mL; AUC(0-t) [7]: 17.9 ± 4.56 ng·h/mL; MRT last [7]: 7.37 ± 0.43 h; MRT inf [7]: 19.5 ± 7.12 h; Tmax [8]: 0.75 h; Cmax [9]: 4.46 ± 1.06 ng/mL; Tmax [10]: ≤ 2 h
3 | 7.33 ± 1.2 mL/min/kg | 6.6 ± 0.86 L | 3.3 ± 0.67 mL/min/kg | 3.94 ± 0.41 L | 6 ± 1.3 mL/min/kg | 5.33 ± 0.41 L | 29.1 ± 6.32 ng·h/mL | 20.2 ± 1.99 ng·h/mL | 15.4 ± 4.12 h | 8.84 ± 0.05 h | 20.1 ± 4.89 h | 1.83 ± 0.2 h | 1.99 ± 0.17 ng/mL | 28.9 ± 6.86 ng·h/mL | 22.2 ± 2.68 ng·h/mL | 11 ± 5.32 h | 7.89 ± 0.21 h | 15.3 ± 4.77 h | 1.5 h | 3.22 ± 0.44 ng/mL | O=c1cc(-c2ccc(O)cc2)oc2cc(OC3OC(CO)C(O)C(O)C3O)cc(O)c12 (centres unmarked) [Apigenin-7-glucoside] | AUC(0-inf) [7]: 46.5 ± 7.55 ng·h/mL; AUC(0-t) [7]: 36.5 ± 5.3 ng·h/mL; half-life [7]: 9.62 ± 0.54 h; MRT last [7]: 8.8 ± 0.07 h; MRT inf [7]: 15 ± 0.61 h; Tmax [8]: 1.67 ± 0.29 h; Cmax [9]: 3.88 ± 0.42 ng/mL; Tmax [10]: ≤ 2 h
4 | 2.5 ± 0.17 mL/min/kg | 1.35 ± 0.09 L | 1 ± 0.17 mL/min/kg | 0.6 ± 0.08 L | 1.3 ± 0.17 mL/min/kg | 0.83 ± 0.06 L | 312 ± 26 ng·h/mL | 290 ± 24.4 ng·h/mL | 5.75 ± 0.55 h | 7.83 ± 0.02 h | 9.56 ± 0.13 h | 6 h | 44 ± 5.61 ng/mL | 433 ± 43.5 ng·h/mL | 402 ± 39.2 ng·h/mL | 5.75 ± 0.11 h | 8.56 ± 0.09 h | 10.3 ± 0.15 h | 6 h | 57.7 ± 5.09 ng/mL | O=c1cc(-c2ccc(O)c(O)c2)oc2cc(O[C@@H]3O[C@H](CO)[C@@H](O)[C@H](O)[C@H]3O)cc(O)c12 [Cynaroside] | AUCs compared among the analytes: highest; correlation between CL, AUCs (AUC(0–t), AUC (0–∞)), t½, and dose: there was a correlation; pharmacokinetic process (Cmax and AUCs versus dosage): linear pharmacokinetic process; AUC(0-inf) [7]: 472 ± 31.3 ng·h/mL; AUC(0-t) [7]: 438 ± 27.6 ng·h/mL; half-life [7]: 5.1 ± 0.13 h; MRT last [7]: 7.51 ± 0.01 h; MRT inf [7]: 9.2 ± 0.11 h; Tmax [8]: 6 h; Cmax [9]: 79.5 ± 3.5 ng/mL; Tmax compared among the analytes (no matter the dosages): longest

Row | SMILES | Clearances (JHGs high dose 22.81 g/kg/d) | Vss (JHGs high dose 22.81 g/kg/d) | Clearances (JHGs low dose 5.70 g/kg/d) | Vss (JHGs low dose 5.70 g/kg/d) | Clearances (JHGs medium dose 11.41 g/kg/d) | Vss (JHGs medium dose 11.41 g/kg/d) | AUC(0-inf) [1] | AUC(0-t) [1] | half-life [1] | MRT last [1] | MRT inf [1] | Tmax [2] | Cmax [3] | AUC(0-inf) [4] | AUC(0-t) [4] | half-life [4] | MRT last [4] | MRT inf [4] | Tmax [5] | Cmax [6] | other results
5 | CC1=C2CC3C(CC(=O)C4CC(O)CCC43C)C2CCC12OC1CC(C)CNC1C2C (centres unmarked) [Peimisine] | 3.3 ± 0.5 mL/min/kg | 3.96 ± 0.82 L | 2.5 ± 0.67 mL/min/kg | 3.26 ± 0.57 L | 3.17 ± 0.83 mL/min/kg | 3.98 ± 0.82 L | 19.5 ± 5.73 ng·h/mL | 12.4 ± 2.56 ng·h/mL | 16.5 ± 2.09 h | 9.16 ± 0.22 h | 22.8 ± 3.24 h | 4 h | 1.49 ± 0.16 ng/mL | 26.9 ± 7.93 ng·h/mL | 17.8 ± 4.48 ng·h/mL | 15.2 ± 1.25 h | 9.14 ± 0.03 h | 21.3 ± 1.78 h | 4 h | 2.08 ± 0.54 ng/mL | pharmacokinetic process (Cmax and AUCs versus dosage): linear pharmacokinetic process; AUC(0-inf) [7]: 48.9 ± 9.74 ng·h/mL; AUC(0-t) [7]: 34.9 ± 8.14 ng·h/mL; half-life [7]: 11.4 ± 0.71 h; MRT last [7]: 11.34 ± 0.11 h; MRT inf [7]: 19.8 ± 0.92 h; Tmax [8]: 8 h; Cmax [9]: 2.35 ± 0.53 ng/mL
